Measurements: patent publication US20050155119A1, “Chlorophyllous totipotent cell cultures” (Dow AgroSciences LLC, priority 2004, published 2005)

Experiments:
maize = settings: in vivo; cited from earlier work
rice = settings: in vivo; cited from earlier work
green suspension cells = assay: Response of the green maize suspension to streptomycin and spectinomycin; format: cell-based
Brassica juncea = settings: 100 mg Zn/l (1529 μm) added to soil mixtures; cited from earlier work
Halophila ovalis = settings: 10 mg/l of Zn (153 μm); cited from earlier work
PS-II electron transport = assay: Oxygen electrode determination of photosynthetic electron transport with diuron; format: cell-based, maize
Description: The oxygen electrode was set up per manufacturer's instructions by covering the silver electrode with layers of KCl solution, cigarette paper, and PTFE gas permeable membrane. The circulating water bath used to maintain a constant temperature of 24° C. during the course of the experiments. An experiment was initiated by the addition of 1 mL of suspension containing 100 mg of the green suspension cells to the electrode chamber. Oxygen uptake within the chamber was limited by the insertion of a plunger to the level of the liquid, and the flea magnet was turned on to assure adequate mixing during each experiment. Data points were collected by LabVIEW 5.1 and sent to an EXCEL spreadsheet. Data points were collected at a rate of 0.2/sec over 70 scans. […]
Photosynthetic electron transport was measured with an oxygen electrode in the absence and presence of diuron (DCMU), a PS-II electron transport inhibitor at several concentrations (Figure below). […] A light intensity of 225 μmol M^−2 S^−1 photosynthetic photon flux density was used to drive electron transport, and oxygen evolution was measured polarographically.
Whether or not Diuron treatment lead to inhibition of oxygen was investigated using an oxygen electrode. To determine amount of photosynthesis occurring in the cells, respiration rates were measured with and without the exposure of the cells to a strong light source. […]

## [Cu] [Cu, Copper]
maize
  No Observable Adverse Effect Level (tissue concentration that did not decrease top growth): 40 mg/kg
  critical Cu toxicity level: 20 mg/kg
  critical level of Cu: 21 mg/kg
rice
  critical Cu toxicity level: 20 mg/kg

## [H]/N=C(/N)N[C@H]1[C@H](O)[C@@H](O)[C@H](O[C@@H]2O[C@@H](C)[C@](O)(C=O)[C@H]2O[C@@H]2O[C@@H](CO)[C@H](O)[C@@H](O)[C@@H]2NC)[C@@H](N/C(N)=N\[H])[C@@H]1O [Streptomycin]
Green suspension cells; 62.5 mg/L
  plants recovered when germinated in Streptomycin-containing medium: albino plants were recovered
Green suspension cells; 125 mg/L
  bleaching of cells: fully bleached
Green suspension cells; 125 mg/l (FIG. 2 legend)
  plants recovered when germinated in Streptomycin-containing medium: albino plants were recovered
Green suspension cells; 250 mg/L (FIG. 2 legend)
  bleaching of cells: partially bleached
Green suspension cells; 500 mg/L
  appearance of cells: excessive browning and necrosis
Green suspension cells; 500 mg/l, after ~4 weeks
  growth and appearance of green suspension cells: growth was inhibited, and the cells were bleached or browned and showed excessive necrosis

## [Zn] [Zn, Zinc]
Brassica juncea
  phytotoxicity: not phytotoxic
Halophila ovalis
  total chlorophyll concentrations: increase in total chlorophyll concentrations

## CN(C)C(=O)Nc1ccc(Cl)c(Cl)c1 [diuron]
PS-II electron transport; 100 mg green suspension in 1 mL, illuminated, oxygen electrode
  concentration with greater effect of inhibiting the light reaction of photosynthesis: 0.01 M
PS-II electron transport; green suspension, FIG. 4
  effect on light induced oxygen evolution: cut down the light induced oxygen evolution

## CN[C@@H]1[C@H](O)[C@H](NC)[C@H]2O[C@@]3(O)C(=O)C[C@@H](C)O[C@H]3O[C@@H]2[C@H]1O [spectinomycin]
Green suspension cells; various spectinomycin concentrations
  response of the green suspension: did not respond
